Assays:
D4 receptor = target: T1, D4 receptor (Homo sapiens, UniProt P21917); conditions: various in vitro efficacy assays; cited from earlier work
T1 sequence (P21917 1-419): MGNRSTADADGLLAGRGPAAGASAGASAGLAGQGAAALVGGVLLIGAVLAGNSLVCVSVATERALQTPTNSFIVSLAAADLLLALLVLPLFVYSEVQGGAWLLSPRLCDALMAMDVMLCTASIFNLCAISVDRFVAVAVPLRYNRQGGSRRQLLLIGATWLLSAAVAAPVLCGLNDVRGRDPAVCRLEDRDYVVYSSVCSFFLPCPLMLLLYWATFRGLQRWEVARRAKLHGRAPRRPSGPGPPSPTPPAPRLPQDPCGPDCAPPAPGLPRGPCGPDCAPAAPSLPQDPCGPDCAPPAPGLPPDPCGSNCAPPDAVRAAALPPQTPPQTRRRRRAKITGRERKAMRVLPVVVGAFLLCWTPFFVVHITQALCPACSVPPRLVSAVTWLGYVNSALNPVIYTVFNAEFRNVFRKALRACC

| SMILES | melting point | Functional activity at D4 receptor (literature) (D4 receptor) |
| --- | --- | --- |
| O=C(CCCN1CCC(c2c[nH]c3ccc(Cl)cc23)CC1)N1CCc2ccccc2C1 [Compound 8, 5-Chloro-3-{1-[4-(3,4-dihydro-1H-isoquinolin-2-yl)-4-oxobutan-1-yl]piperidin-4-yl}-1H-indole] | 172 to 175 °C |  |
| CC(C)Oc1cccnc1N(C)C1CCN(Cc2ccccc2)CC1 [Compound U-101958] |  | partial D4 receptor agonists |
